Test: xn = mol fraction of the nth substance listed
Settings: 101 kPa, Liquid, Vibrating tube method

C=O [methanal] + O
mass density [kg/m3]
Settings | x1 = 0.0545 | x1 = 0.05456 | x1 = 0.09849 | x1 = 0.1544 | x1 = 0.2019 | x1 = 0.2573
291.15 K | – | 1025.9 | 1045.9 | 1070.2 | 1091.8 | 1112.8
298.15 K | 1024.6 | – | 1044.7 | 1069.9 | 1089.4 | 1111.3
313.15 K | 1019.6 | – | 1039.7 | 1066.9 | 1086.8 | 1109.9

— the NIST ThermoML archive (doi:10.1016/j.fluid.2018.07.015)
